According to patent US10981916B2, “Substituted pyrazolopyrimidinone compounds as PDE2 inhibitors” (DART NEUROSCIENCE, LLC, priority 2016, dated 2021):

target: PDE2A (Homo sapiens (Human), UniProt O00408); assay: IMAP TR-FRET PDE2A enzymatic assay; assay type: biochemical; conditions: FLAG-tagged PDE2A1 (amino acids 2-941), 200 nM FAM-cAMP substrate, 11-point half-log dose-response
Excerpt: An IMAP TR-FRET-based phosphodiesterase assay was developed using the PDE2A isoform. IMAP technology is based on high-affinity binding of phosphate by immobilized metal (MIII) coordination complexes on nanoparticles. The IMAP “binding reagent” recognizes phosphate groups on AMP or GMP generated from cAMP or cGMP in a PDE reaction. Cyclic nucleotides that carry a phosphodiester bond and not a free phosphate are not recognized by the binding reagent. The time resolved fluorescence resonance energy transfer (TR-FRET) is afforded by a Terbium (Tb)-Donor pre-bound to the nanoparticles. FRET occurs when the fluorescent-labeled AMP or GMP product of a PDE reaction binds and comes into close proximity to the Tb-Donor complex. Due to the long lifetime of Tb fluorescence, detection can be run in time-resolved mode to reduce or eliminate interference from auto-fluorescent compounds.
The IMAP TR-FRET PDE2A assay was performed in 1536-well white plates. A total of 250 pg per well of FLAG-tagged PDE2A 1 (amino acids 2-941) was dispensed in 2.5 μL IMAP assay buffer consisting of 10 mM Tris pH 7.2, 10 mM MgCl2, 1 mM DTT, and 0.1% fatty acid free BSA. 30 nL of compound was then added from 1 mM stocks in DMSO using a Kalypsys Pintool. Plates were incubated for 5 min at room temperature before dispensing 1.5 μL of 533 nM FAM-cAMP substrate for a final concentration of 200 nM. Following a brief centrifugation, plates were incubated for 30 min at room temperature. The assay was terminated by adding 5 μL IMAP binding reagent Tb complex to each well which was prepared according to manufacturer's recommendations (Molecular Devices). Plates were incubated an additional 120 minutes at room temperature and read on a Viewlux plate reader. All compounds were solvated at a concentration of 10 mM in DMSO and tested in 11-point half-log dose-response. Curve fitting and IC50 values were determined using a standard four parameter fit.

Chain of PDE2A (O00408 2-941): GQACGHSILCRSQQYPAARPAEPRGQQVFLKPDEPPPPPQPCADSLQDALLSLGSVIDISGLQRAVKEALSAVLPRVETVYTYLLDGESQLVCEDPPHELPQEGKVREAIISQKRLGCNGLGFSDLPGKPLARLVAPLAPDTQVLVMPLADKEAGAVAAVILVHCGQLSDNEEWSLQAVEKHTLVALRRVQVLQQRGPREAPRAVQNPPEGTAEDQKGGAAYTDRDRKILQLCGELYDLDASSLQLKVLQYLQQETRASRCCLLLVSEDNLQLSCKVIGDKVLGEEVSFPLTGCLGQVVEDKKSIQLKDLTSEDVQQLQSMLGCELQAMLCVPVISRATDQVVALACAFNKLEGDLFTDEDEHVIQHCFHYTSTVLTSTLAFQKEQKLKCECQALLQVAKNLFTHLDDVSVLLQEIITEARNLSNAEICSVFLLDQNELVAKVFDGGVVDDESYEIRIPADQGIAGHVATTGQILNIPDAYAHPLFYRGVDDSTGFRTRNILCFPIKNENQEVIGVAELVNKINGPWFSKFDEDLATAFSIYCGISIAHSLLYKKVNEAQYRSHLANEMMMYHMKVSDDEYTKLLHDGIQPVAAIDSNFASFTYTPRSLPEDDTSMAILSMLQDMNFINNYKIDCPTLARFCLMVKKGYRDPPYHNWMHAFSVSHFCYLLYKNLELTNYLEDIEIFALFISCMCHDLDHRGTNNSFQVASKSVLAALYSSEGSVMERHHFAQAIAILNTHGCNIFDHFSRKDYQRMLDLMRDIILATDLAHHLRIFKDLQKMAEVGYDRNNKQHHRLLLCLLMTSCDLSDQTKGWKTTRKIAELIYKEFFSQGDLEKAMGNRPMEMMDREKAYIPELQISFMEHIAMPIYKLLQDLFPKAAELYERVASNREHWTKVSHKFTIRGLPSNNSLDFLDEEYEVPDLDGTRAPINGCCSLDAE

Structure (SMILES)	PDE2 (pIC50)
CC[C@@H](c1ccc(C(F)(F)F)cn1)n1nc(C2CC2)c2c(=O)[nH]c(C)nc21 [Example 23, 3-cyclopropyl-6-methyl-1-[(1S)-1-[5-(trifluoromethyl)pyridin-2-yl]propyl]-1H,4H,5H-pyrazolo[3,4-d]pyrimidin-4-one]	>7
CCC(c1ccc(C(F)(F)F)nc1)n1nc(C2CC2)c2c(=O)[nH]c(Cc3ccc(F)cn3)nc21 (stereo not shown) [Example 8, 3-cyclopropyl-6-[(5-fluoropyridin-2-yl)methyl]-1-{1-[6-(trifluoromethyl)pyridin-3-yl]propyl}-1H,4H,5H-pyrazolo[3,4-d]pyrimidin-4-one]	>7
Cc1nc2c(c(C3CC3)nn2C(C)c2ccc(C(F)(F)F)cn2)c(=O)[nH]1 (stereo not shown) [Example 11, 3-cyclopropyl-6-methyl-1-{1-[5-(trifluoromethyl)pyridin-2-yl]ethyl}-1H,4H,5H-pyrazolo[3,4-d]pyrimidin-4-one]	>7
C[C@H](c1ccc(C(F)(F)F)nc1)n1nc(C2CC2)c2c(=O)[nH]c(Cc3ccc(F)cn3)nc21 [Example 16, 3-cyclopropyl-6-[(5-fluoropyridin-2-yl)methyl]-1-[(1R)-1-[6-(trifluoromethyl)pyridin-3-yl]ethyl]-1H,4H,5H-pyrazolo[3,4-d]pyrimidin-4-one]	<5
CC[C@@H](c1ccc(C(F)(F)F)nc1)n1nc(C2CC2)c2c(=O)[nH]c(C)nc21 [Example 19, 3-cyclopropyl-6-methyl-1-[(1S)-1-[6-(trifluoromethyl)pyridin-3-yl]propyl]-1H,4H,5H-pyrazolo[3,4-d]pyrimidin-4-one]	>7
Cc1nc2c(c(C3CC3)nn2C(C)c2ccc(C(F)(F)F)nc2)c(=O)[nH]1 (stereo not shown) [Example 12, 3-cyclopropyl-6-methyl-1-{1-[6-(trifluoromethyl)pyridin-3-yl]ethyl}-1H,4H,5H-pyrazolo[3,4-d]pyrimidin-4-one]	>7
Cc1nc2c(c(C3CC3)nn2[C@@H](C)c2ccc(C(F)(F)F)cn2)c(=O)[nH]1 [Example 25, 3-cyclopropyl-6-methyl-1-[(1S)-1-[5-(trifluoromethyl)pyridin-2-yl]ethyl]-1H,4H,5H-pyrazolo[3,4-d]pyrimidin-4-one]	>7
CC[C@@H](c1ccc(C(F)(F)F)nc1)n1nc(C2CC2)c2c(=O)[nH]c(Cc3ccc(F)cn3)nc21 [Example 21, 3-cyclopropyl-6-[(5-fluoropyridin-2-yl)methyl]-1-[(1S)-1-[6-(trifluoromethyl)pyridin-3-yl]propyl]-1H,4H,5H-pyrazolo[3,4-d]pyrimidin-4-one]	>7
Cc1nc2c(c(C3CC3)nn2C(C)c2ccc(C(F)(F)F)cc2)c(=O)[nH]1 (stereo not shown) [Example 10, 3-cyclopropyl-6-methyl-1-{1-[4-(trifluoromethyl)phenyl]ethyl}-1H,4H,5H-pyrazolo[3,4-d]pyrimidin-4-one]	>7
COc1ccc(Cc2nc3c(c(C4CC4)nn3[C@@H](C)c3ccc(C(F)(F)F)nc3)c(=O)[nH]2)nc1 [Example 5, 3-cyclopropyl-6-[(5-methoxypyridin-2-yl)methyl]-1-[(1S)-1-[6-(trifluoromethyl)pyridin-3-yl]ethyl]-1H,4H,5H-pyrazolo[3,4-d]pyrimidin-4-one]	>7
CCC(c1ccc(C(F)(F)F)nc1)n1nc(C2CC2)c2c(=O)[nH]c(Cc3ccc(OC)cn3)nc21 (stereo not shown) [Example 1, 3-cyclopropyl-6-[(5-methoxypyridin-2-yl)methyl]-1-{1-[6-(trifluoromethyl)pyridin-3-yl]propyl}-1H,4H,5H-pyrazolo[3,4-d]pyrimidin-4-one]	>7
COc1ccc(Cc2nc3c(c(C4CC4)nn3C(C)c3ccc(C(F)(F)F)nc3)c(=O)[nH]2)nc1 (stereo not shown) [Example 2, 3-cyclopropyl-6-[(5-methoxypyridin-2-yl)methyl]-1-{1-[6-(trifluoromethyl)pyridin-3-yl]ethyl}-1H,4H,5H-pyrazolo[3,4-d]pyrimidin-4-one]	>7
CC[C@@H](c1ccc(C(F)(F)F)nc1)n1nc(C2CC2)c2c(=O)[nH]c(Cc3ccc(OC)cn3)nc21 [Example 17, 3-cyclopropyl-6-[(5-methoxypyridin-2-yl)methyl]-1-[(1S)-1-[6-(trifluoromethyl)pyridin-3-yl]propyl]-1H,4H,5H-pyrazolo[3,4-d]pyrimidin-4-one]	>7
CCC(c1ccc(C(F)(F)F)cn1)n1nc(C2CC2)c2c(=O)[nH]c(C)nc21 (stereo not shown) [Example 9, 3-cyclopropyl-6-methyl-1-{1-[5-(trifluoromethyl)pyridin-2-yl]propyl}-1H,4H,5H-pyrazolo[3,4-d]pyrimidin-4-one]	>7
CC[C@H](c1ccc(C(F)(F)F)nc1)n1nc(C2CC2)c2c(=O)[nH]c(Cc3ccc(OC)cn3)nc21 [Example 18, 3-cyclopropyl-6-[(5-methoxypyridin-2-yl)methyl]-1-[(1R)-1-[6-(trifluoromethyl)pyridin-3-yl]propyl]-1H,4H,5H-pyrazolo[3,4-d]pyrimidin-4-one]	<5

same assay, conditions: FLAG-tagged PDE2A1 (amino acids 2-941), 200 nM FAM-cAMP substrate, 11-point half-log dose-response; read-out: PDE2 (pIC50) (converted)

Structure (SMILES)	IC50 [nM]
COc1ccc(Cc2nc3c(c(C4CC4)nn3[C@H](C)c3ccc(C(F)(F)F)nc3)c(=O)[nH]2)nc1 [Example 6, 3-cyclopropyl-6-[(5-methoxypyridin-2-yl)methyl]-1-[(1R)-1-[6-(trifluoromethyl)pyridin-3-yl]ethyl]-1H,4H,5H-pyrazolo[3,4-d]pyrimidin-4-one]	100 to 1000
CCC(c1ccc(C(F)(F)F)nc1)n1nc(C2CCC2)c2c(=O)[nH]c(C)nc21 (stereo not shown) [Example 4, 3-cyclobutyl-6-methyl-1-{1-[6-(trifluoromethyl)pyridin-3-yl]propyl}-1H,4H,5H-pyrazolo[3,4-d]pyrimidin-4-one]	> 10000
Cc1nc2c(c(C3CC3)nn2[C@H](C)c2ccc(C(F)(F)F)cn2)c(=O)[nH]1 [Example 26, 3-cyclopropyl-6-methyl-1-[(1R)-1-[5-(trifluoromethyl)pyridin-2-yl]ethyl]-1H,4H,5H-pyrazolo[3,4-d]pyrimidin-4-one]	1000 to 10000
Cc1nc2c(c(C3CC3)nn2[C@H](C)c2ccc(C(F)(F)F)nc2)c(=O)[nH]1 [Example 14, 3-cyclopropyl-6-methyl-1-[(1R)-1-[6-(trifluoromethyl)pyridin-3-yl]ethyl]-1H,4H,5H-pyrazolo[3,4-d]pyrimidin-4-one]	1000 to 10000
CC(c1ccc(C(F)(F)F)nc1)n1nc(C2CC2)c2c(=O)[nH]c(Cc3ccc(F)cn3)nc21 (stereo not shown) [Example 7, 3-cyclopropyl-6-[(5-fluoropyridin-2-yl)methyl]-1-{1-[6-(trifluoromethyl)pyridin-3-yl]ethyl}-1H,4H,5H-pyrazolo[3,4-d]pyrimidin-4-one]	100 to 1000
C[C@@H](c1ccc(C(F)(F)F)nc1)n1nc(C2CC2)c2c(=O)[nH]c(Cc3ccc(F)cn3)nc21 [Example 15, 3-cyclopropyl-6-[(5-fluoropyridin-2-yl)methyl]-1-[(1S)-1-[6-(trifluoromethyl)pyridin-3-yl]ethyl]-1H,4H,5H-pyrazolo[3,4-d]pyrimidin-4-one]	100 to 1000
CC[C@H](c1ccc(C(F)(F)F)nc1)n1nc(C2CC2)c2c(=O)[nH]c(Cc3ccc(F)cn3)nc21 [Example 22, 3-cyclopropyl-6-[(5-fluoropyridin-2-yl)methyl]-1-[(1R)-1-[6-(trifluoromethyl)pyridin-3-yl]propyl]-1H,4H,5H-pyrazolo[3,4-d]pyrimidin-4-one]	1000 to 10000
CCC(c1ccc(C(F)(F)F)nc1)n1nc(C2CC2)c2c(=O)[nH]c(C)nc21 (stereo not shown) [Example 3, 3-cyclopropyl-6-methyl-1-{1-[6-(trifluoromethyl)pyridin-3-yl]propyl}-1H,4H,5H-pyrazolo[3,4-d]pyrimidin-4-one]	100 to 1000
CC[C@H](c1ccc(C(F)(F)F)nc1)n1nc(C2CC2)c2c(=O)[nH]c(C)nc21 [Example 20, 3-cyclopropyl-6-methyl-1-[(1R)-1-[6-(trifluoromethyl)pyridin-3-yl]propyl]-1H,4H,5H-pyrazolo[3,4-d]pyrimidin-4-one]	1000 to 10000
CC[C@H](c1ccc(C(F)(F)F)cn1)n1nc(C2CC2)c2c(=O)[nH]c(C)nc21 [Example 24, 3-cyclopropyl-6-methyl-1-[(1R)-1-[5-(trifluoromethyl)pyridin-2-yl]propyl]-1H,4H,5H-pyrazolo[3,4-d]pyrimidin-4-one]	1000 to 10000
